From patent EP3807241B1, “IMPROVEMENTS IN OR RELATING TO ORGANIC COMPOUNDS” (Givaudan SA, priority 2018, dated 2019)
Read-outs that look alike come from different tables or passages of the source.

Experiments:
plated rat hepatocytes = format: in vitro ADME
Description: Short-term monolayer cultures of cryopreserved primary hepatocytes from rat were prepared in collagen coated 48-well plates to perform metabolic assays in a kinetic manner for up to 22 h.
Palatable primary male rat hepatocytes (Sprague-Dawley, Grade P pooled cryopreserved hepatocytes, for plated assays) and supplements were purchased from Biopredic International (Saint Grégoire, France). WEM (with Phenol Red, with GlutaMAX™, without HEPES) was purchased from Gibco™ (ThermoFisherScientific).
Cells were thawed following the supplier's protocol and seeded at a density of 450,000 cells/mL in 0.25 mL seeding medium (WEM supplemented with fetal bovine serum, Dexamethasone, penicillin-streptomycin, insulin, GlutaMAX™ and HEPES) using 48-well plates which were coated with collagen (Collagen I Rat Protein, Tail; Gibco™, ThermoFisherScientific) and incubated for 4-5 h to facilitate attachment. Then, the medium was changed to culturing medium (WEM supplemented with penicillin, streptomycin, insulin, hydrocortisone without serum) to prevent detachment of cells.
Test chemicals were dissolved in methanol (80-90% methanol) and directly added with the culture medium (0.8-0.9% final methanol concentration). For structure-activity studies, final concentration of test chemicals was 50 µM or 5 µM. Cells were incubated for 0.5-22 h in the presence of test chemicals. To stop the reactions, the culture medium was removed and 0.5 M citric acid (pH 2.0; 60 µL) and cold acetonitrile (60 µL) containing 2 µM decanoyl CoA as internal standard were added to each well. The attached cells were removed and disrupted by scraping the well with a pipette tip and by pipetting up and down several times, transferred in 1.5 mL tubes and frozen at -80°C. The cell lysates were defrozen, centrifuged (21,000 x g, 5 min, RT), and the supernatant was diluted with 1.36 mL Tris-buffer (4 mM) containing KCI (6 mM), MgCl2 (0.3 mM) and n-heptadecanoyl CoA as internal standard (0.2 µM). Samples were neutralized by addition of NaOH (42 µL of 1 M NaOH) and loaded onto solid phase extraction cartridges (OASIS HLB µEIution plate, Waters). Columns were washed with 200 µL of ammonium solution (1 M), and samples eluted sequentially with 50 µL acetonitrile and 50 µL water.
CoA conjugates were analyzed with high resolution LC-MS (LC-HRMS) on a Dionex UltiMate 3000 RS HPLC system coupled to a Q-Exactive orbitrap mass spectrometer (Thermo Scientific, Reinach, Switzerland) with electrospray ionization (ESI) in both positive and negative ionization mode. For liquid chromatography separation an Agilent Zorbax 300Extend-C18 column with dimensions 2.1 mm x 50 mm and particle size of 3.5 µm with a 2.1 mm x 10 mm pre-column of the same material was used. The flow rate was 0.4 mL/min. Eluent A consists of water containing 0.0025% ammonia (pH around 9.8) and eluent B consists of acetonitrile containing 0.0025% ammonia. A linear gradient was run from 95% eluent A (hold for 1 min) to 100% eluent B within 6 min (hold for 1 min), back to 95% eluent A within 0.5 min followed by 1.5 min equilibration time. The injection volume of the sample was 10 µl. The mass resolution of the HR-MS spectra was set to 70,000. The mass accuracy was <5ppm. […] Ion source parameters adjusted were as follows: sheath gas flow (30 arbitrary unit), auxiliary gas flow (10 arbitrary unit), capillary temperature (270°C), and source voltage (4kV in positive mode, -3kV in negative mode). Fragmentation was obtained from dissociation in an octopole collision cell using higher energy collision dissociation settings at 35 and 45 (arbitrary unit). The mass scan range was set from 120 to 1800 m/z.
Calibration standards were prepared with CoA, acetyl-CoA, benzoyl-CoA, TBBA-CoA, and octanoyl-CoA to determine the concentrations of CoA conjugates. Decanoyl-CoA and heptadecanoyl-CoA were used as internal standards. The limit of detection with this method is 0.005 µM for CoA conjugates. […]

primates = settings: cited from earlier work
[1] = test system: reproductive organs of male rats; settings: rat, in vivo; cited from earlier work
[2] = test system: reproductive organs of male dogs; settings: dog, in vivo; cited from earlier work
mice = settings: mouse, in vivo; cited from earlier work
guinea-pigs = settings: guinea pig, in vivo; cited from earlier work
primary rat hepatocytes = settings: TBBA treatment; cited from earlier work
[3] = male, Sprague-Dawley, rat, 0.5 h, 50 µM
[4] = male, Sprague-Dawley, rat, 4 h, 50 µM
[5] = male, Sprague-Dawley, rat, 22 h, 50 µM

CC(C)CC1=CCC(CCC=O)C(C)C1 (stereo not drawn) [3-(4-isobutyl-6-methylcyclohex-3-en-1-yl)propanal]
CoA Conjugates Detected in Plated Rat Hepatocytes (Total Amount) (plated rat hepatocytes; [3]): 86 % of TBBA-CoA ex BMHCA
CoA conjugate detected: 3-(4-isobutyl-2-methylcyclohexyl)propanoic acid-CoA (plated rat hepatocytes; [3]): 3 % of TBBA-CoA ex BMHCA
CoA conjugate detected: 3-(4-isobutyl-6-methylcyclohex-3-en-1-yl)propanoic acid (plated rat hepatocytes; [3]): 58 % of TBBA-CoA ex BMHCA
CoA conjugate detected: 3-(4-isobutyl-6-methylcyclohexa-1,3-dien-1-yl)propanoic acid-CoA (plated rat hepatocytes; [3]): 21 % of TBBA-CoA ex BMHCA
CoA conjugate detected: 4-isobutyl-6-methylcyclohex-3-ene-1-carboxylic acid-CoA (plated rat hepatocytes; [3]): 4 % of TBBA-CoA ex BMHCA
CoA Conjugates Detected in Plated Rat Hepatocytes (Total Amount) (plated rat hepatocytes; [4]): 31 % of TBBA-CoA ex BMHCA
CoA conjugate detected: 3-(4-isobutyl-6-methylcyclohex-3-en-1-yl)propanoic acid (plated rat hepatocytes; [4]): 19 % of TBBA-CoA ex BMHCA
CoA conjugate detected: 3-(4-isobutyl-6-methylcyclohexa-1,3-dien-1-yl)propanoic acid-CoA (plated rat hepatocytes; [4]): 8 % of TBBA-CoA ex BMHCA
CoA conjugate detected: 4-isobutyl-6-methylcyclohex-3-ene-1-carboxylic acid-CoA (plated rat hepatocytes; [4]): 4 % of TBBA-CoA ex BMHCA

CC(C)CC1=CCC(CCC=O)CC1 (stereo not drawn) [3-(4-isobutylcyclohex-3-en-1-yl)propanal]
main conjugate detected (plated rat hepatocytes; male, Sprague-Dawley, rat, 50 µM): 4-isobutylbenzoic acid-CoA
CoA Conjugates Detected in Plated Rat Hepatocytes (Total Amount) (plated rat hepatocytes; [3]): 74 % of TBBA-CoA ex BMHCA
CoA conjugate detected: 3-(4-isobutylcyclohex-3-en-1-yl)propanoic acid-CoA (plated rat hepatocytes; [3]): 19 % of TBBA-CoA ex BMHCA
CoA conjugate detected: 3-(4-isobutylcyclohexa-1,3-dien-1-yl)propanoic acid-CoA (plated rat hepatocytes; [3]): 12 % of TBBA-CoA ex BMHCA
CoA conjugate detected: 4-isobutylcyclohex-3-ene-1-carboxylic acid-CoA (plated rat hepatocytes; [3]): 23 % of TBBA-CoA ex BMHCA
CoA conjugate detected: 4-isobutylcyclohexa-1,3-diene-1-carboxylic acid-CoA (plated rat hepatocytes; [3]): 8 % of TBBA-CoA ex BMHCA
CoA Conjugates Detected in Plated Rat Hepatocytes (Total Amount) (plated rat hepatocytes; [4]): 45 % of TBBA-CoA ex BMHCA
CoA conjugate detected: 3-(4-isobutylcyclohex-3-en-1-yl)propanoic acid-CoA (plated rat hepatocytes; [4]): 2 % of TBBA-CoA ex BMHCA
CoA conjugate detected: 3-(4-isobutylcyclohexa-1,3-dien-1-yl)propanoic acid-CoA (plated rat hepatocytes; [4]): 2 % of TBBA-CoA ex BMHCA
CoA conjugate detected: 4-isobutylcyclohex-3-ene-1-carboxylic acid-CoA (plated rat hepatocytes; [4]): 10 % of TBBA-CoA ex BMHCA
CoA conjugate detected: 4-isobutylcyclohexa-1,3-diene-1-carboxylic acid-CoA (plated rat hepatocytes; [4]): 8 % of TBBA-CoA ex BMHCA
CoA Conjugates Detected in Plated Rat Hepatocytes (Total Amount) (plated rat hepatocytes; [5]): 29 % of TBBA-CoA ex BMHCA
CoA conjugate detected: 3-(4-isobutylcyclohex-3-en-1-yl)propanoic acid-CoA (plated rat hepatocytes; [5]): 3 % of TBBA-CoA ex BMHCA
CoA conjugate detected: 4-isobutylcyclohex-3-ene-1-carboxylic acid-CoA (plated rat hepatocytes; [5]): 5 % of TBBA-CoA ex BMHCA

CC1=C(CCC=O)CCC(C(C)C)C1 (stereo not drawn) [3-(4-isopropyl-2-methylcyclo-hex-1-en-1-yl)propanal]
accumulation of CoA-conjugates (in words) (plated rat hepatocytes): significantly reduced accumulation
CoA Conjugates Detected in Plated Rat Hepatocytes (Total Amount) (plated rat hepatocytes; [3]): 62 % of TBBA-CoA ex BMHCA
CoA conjugate detected: 3-(4-isopropyl-2-methylcyclohex-1-en-1-yl)propanoic acid-CoA (plated rat hepatocytes; [3]): 22 % of TBBA-CoA ex BMHCA
CoA conjugate detected: 3-(4-isopropyl-2-methylcyclohexa-1,5-dien-1-yl)propanoic acid-CoA (plated rat hepatocytes; [3]): 34 % of TBBA-CoA ex BMHCA
CoA conjugate detected: 3-(4-isopropyl-2-methylphenyl)propanoic acid-CoA (plated rat hepatocytes; [3]): 2 % of TBBA-CoA ex BMHCA
CoA conjugate detected: 4-isopropyl-2-methylcyclohex-1-ene-1-carboxylic acid-CoA (plated rat hepatocytes; [3]): 4 % of TBBA-CoA ex BMHCA
CoA Conjugates Detected in Plated Rat Hepatocytes (Total Amount) (plated rat hepatocytes; [4]): 28 % of TBBA-CoA ex BMHCA
CoA conjugate detected: 3-(4-isopropyl-2-methylcyclohex-1-en-1-yl)propanoic acid-CoA (plated rat hepatocytes; [4]): 10 % of TBBA-CoA ex BMHCA
CoA conjugate detected: 3-(4-isopropyl-2-methylcyclohexa-1,5-dien-1-yl)propanoic acid-CoA (plated rat hepatocytes; [4]): 13 % of TBBA-CoA ex BMHCA
CoA conjugate detected: 3-(4-isopropyl-2-methylphenyl)propanoic acid-CoA (plated rat hepatocytes; [4]): 2 % of TBBA-CoA ex BMHCA
CoA conjugate detected: 4-isopropyl-2-methylcyclohex-1-ene-1-carboxylic acid-CoA (plated rat hepatocytes; [4]): 3 % of TBBA-CoA ex BMHCA
CoA Conjugates Detected in Plated Rat Hepatocytes (Total Amount) (plated rat hepatocytes; [5]): 9 % of TBBA-CoA ex BMHCA
CoA conjugate detected: 3-(4-isopropyl-2-methylcyclohex-1-en-1-yl)propanoic acid-CoA (plated rat hepatocytes; [5]): 3 % of TBBA-CoA ex BMHCA
CoA conjugate detected: 3-(4-isopropyl-2-methylcyclohexa-1,5-dien-1-yl)propanoic acid-CoA (plated rat hepatocytes; [5]): 3 % of TBBA-CoA ex BMHCA
CoA conjugate detected: 4-isopropyl-2-methylcyclohex-1-ene-1-carboxylic acid-CoA (plated rat hepatocytes; [5]): 3 % of TBBA-CoA ex BMHCA
GC Odor Threshold (GC odor threshold): 0.022 ng/L

CC(C)C1CC=C(CCC=O)CC1 (stereo not drawn) [3-(4-isopropylcyclohex-1-en-1-yl)propanal]
accumulation of CoA-conjugates (in words) (plated rat hepatocytes): substantial accumulation
CoA Conjugates Detected in Plated Rat Hepatocytes (Total Amount) (plated rat hepatocytes; [3]): 124 % of TBBA-CoA ex BMHCA
CoA conjugate detected: 3-(4-isopropylcyclohex-1-en-1-yl)propanoic acid-CoA (plated rat hepatocytes; [3]): 53 % of TBBA-CoA ex BMHCA
CoA conjugate detected: 3-(4-isopropylcyclohexa-1 ,5-dien-1-yl)propanoic acid-CoA (plated rat hepatocytes; [3]): 36 % of TBBA-CoA ex BMHCA
CoA conjugate detected: 4-isopropylcyclohex-1-ene-1-carboxylic acid-CoA (plated rat hepatocytes; [3]): 23 % of TBBA-CoA ex BMHCA
CoA conjugate detected: 4-isopropylcyclohexane-1-carboxylic acid-CoA (plated rat hepatocytes; [3]): 12 % of TBBA-CoA ex BMHCA
CoA Conjugates Detected in Plated Rat Hepatocytes (Total Amount) (plated rat hepatocytes; [4]): 79 % of TBBA-CoA ex BMHCA
CoA conjugate detected: 3-(4-isopropylcyclohex-1-en-1-yl)propanoic acid-CoA (plated rat hepatocytes; [4]): 26 % of TBBA-CoA ex BMHCA
CoA conjugate detected: 3-(4-isopropylcyclohexa-1 ,5-dien-1-yl)propanoic acid-CoA (plated rat hepatocytes; [4]): 17 % of TBBA-CoA ex BMHCA
CoA conjugate detected: 4-isopropylcyclohex-1-ene-1-carboxylic acid-CoA (plated rat hepatocytes; [4]): 26 % of TBBA-CoA ex BMHCA
CoA conjugate detected: 4-isopropylcyclohexane-1-carboxylic acid-CoA (plated rat hepatocytes; [4]): 10 % of TBBA-CoA ex BMHCA
CoA Conjugates Detected in Plated Rat Hepatocytes (Total Amount) (plated rat hepatocytes; [5]): 31 % of TBBA-CoA ex BMHCA
CoA conjugate detected: 4-isopropylcyclohex-1-ene-1-carboxylic acid-CoA (plated rat hepatocytes; [5]): 24 % of TBBA-CoA ex BMHCA
CoA conjugate detected: 4-isopropylcyclohexane-1-carboxylic acid-CoA (plated rat hepatocytes; [5]): 7 % of TBBA-CoA ex BMHCA

CC(C=O)Cc1ccc(C(C)(C)C)cc1 (stereo not drawn) [BMHCA, 3-(4-tert-butylphenyl)-2-methylpropanal]
CoA Conjugates Detected in Plated Rat Hepatocytes (Total Amount) (plated rat hepatocytes; [3]): 100 % of TBBA-CoA ex BMHCA
CoA Conjugates Detected in Plated Rat Hepatocytes (Total Amount) (plated rat hepatocytes; [4]): 100 % of TBBA-CoA ex BMHCA
CoA Conjugates Detected in Plated Rat Hepatocytes (Total Amount) (plated rat hepatocytes; [5]): 100 % of TBBA-CoA ex BMHCA
toxic effects (primates): No effects
toxic effects on the reproductive organs [1]: toxic effects
toxic effects on the reproductive organs [2]: toxic effects
toxic effects (mice): No effects
toxic effects (guinea-pigs): No effects

CC(C)(C)c1ccc(C(=O)O)cc1 [TBBA, 4-(tert-butyl)benzoic acid]
p-tert-butyl-benzoyl-CoA accumulates to stable levels within (plated rat hepatocytes; male, Sprague-Dawley, rat): 0.5 to 4 h
CoA, acetyl-CoA and citrate levels (primary rat hepatocytes): decreased
